Here are results for 89 compounds from PubChem BioAssay AID2305 (GlaxoSmithKline (GSK), 2010).

“And” between values parts separate entries of the source, which are not always exact repeats. Identical values can stand only once.

The subject of the assay is P. falciparum 3D7 growth, pLDH absorbance. In words: P. falciparum 3D7 growth inhibition, dose response, strain 3D7 (AID 2305).

The term IC50 denotes the concentration at which inhibition is half-maximal. High values mean weaker potency in that assay, low ones greater potency in that assay. In turn, `COc1ccc2nccc([C@@H](O)CN3CCC(NCc4ccc5c(c4)NC(=O)CO5)CC3)c2c1` gave an IC50 of 1660 nM. Compound `CCCCNCc1cc(Cl)c2ccccc2c1O` displayed an IC50 of 460 nM. With `NC(=O)c1ccc2[nH]cc(C3CCN(CC4CCC(NC(=O)/C=C/c5ccc(Cl)c(Cl)c5)CC4)CC3)c2c1` (centres undefined), the IC50 was 870 nM and 760 nM. Take `CCC(C)Oc1ccc2nc(N)nc(N)c2c1Cl` (centres undefined): the IC50 is 180 nM. `CN1CCN(c2nc(NCCc3ccc(O)cc3)nc(NCc3ccccc3-c3ccc(C(F)(F)F)cc3)n2)CC1`: the IC50 came out at 970 nM. For `O=c1cnc2ccc(F)cc2n1CCN1CCC(NCc2cc(-c3ccccc3)cs2)CC1`, the IC50 was determined as 860 nM. In the case of `COCCNCc1ccc(-c2cccc(CNC3CCN(Cc4ccccc4)CC3)c2)cc1`, the IC50 was 330 nM. For `COCCCNC(=S)NN=C(C)c1ccccn1` the value was 300 nM; for `Cc1cc(N[C@@H](Cc2ccccc2)C(=O)NC2CCCC2)nc(NCCOc2ccccc2)n1`, 1110 nM. Regarding `Cc1c(C(=O)N[C@@H](C)c2ccccc2)c2cc(O)c(Br)cc2n1C1CCCCC1`, the IC50 is 840 nM. `COc1cc(Cc2cnc(N)nc2N)cc(OC(C)C)c1OC` had an IC50 of 1040 nM. On to `CCc1ccc(O)c(-c2cc(C(=O)Nc3ccc(OC)c(Cl)c3)[nH]n2)c1`, for which the IC50 was found to be 870 nM. `CC1(C)N=C(N)N=C(N)N1OCCOc1ccc(Cc2ccccc2)cc1` returned an IC50 of 40 nM. For `O=C(N[C@H]1CCN(CCc2ccc(O[C@H]3CCNC3)c(F)c2)C1)c1ccc(Cl)c(Cl)c1` the value was 1190 nM.

Compound `Cc1noc(C)c1-c1cccc(CNCc2ccc(-c3ccc(-c4nc5c(C)cccc5[nH]4)cc3)cc2)c1` showed an IC50 of 240 nM. The same measure for `CCCCCNc1ccnc2cc(Cl)ccc12`: 510 nM; for `COc1ccccc1CNc1ccnc(NCCc2cccc(C(F)(F)F)c2)n1`: 930 nM; for `CCOc1ccc(OCC(=O)Nc2nc(-c3ccc(OC)cc3)c(C)s2)cc1`: 220 nM. Turning to `CCCCCN1CCC(NS(=O)(=O)c2cccc(C(=O)Nc3ccc(C(F)(F)F)cc3)c2)C1` (centres undefined), the IC50 is 800 nM. The compound `Cc1cc(N[C@@H](CC(C)C)C(=O)NCc2cccc(F)c2)nc(NCC2CCCCC2)n1` came in with an IC50 of 830 nM. `CN(C)Cc1ccc(-c2cc3ncnc(Nc4ccc(OCc5cccc(F)c5)c(Cl)c4)c3s2)[nH]1` gave an IC50 of 170 nM. `COc1cc(Cc2cnc(N)nc2N)cc(OCCCCC#N)c1OC` registered an IC50 of 1040 nM.

`FC(F)(F)c1ccc2nc(-c3ccc(-c4ccc(CNCc5cnn(-c6ccccc6)n5)cc4)cc3)[nH]c2c1` came in with an IC50 of 430 nM. Regarding `COc1cccc(CNC(=O)c2ccnc(-c3cccc(CN(C)C4CCN(C)CC4)c3)c2)c1`, the IC50 amounted to 830 nM. In turn, `Clc1ccc(Cn2nc(Br)nc2Br)c(Cl)c1` showed an IC50 of 440 nM. For `Nc1nccc2ccc(-c3ccncc3)cc12`, the half-maximal inhibitory concentration (IC50) was 250 nM.

`CC(C)(C)c1cc(C(=O)N2CCN(c3ccc(C(F)(F)F)cn3)CC2)n(Cc2ccc(F)cc2)n1` had an IC50 of 980 nM. In the case of `O=C(/C=C/c1ccc(Cl)c(Cl)c1)NCCCCCN1CCC(NC(=O)NC2CCCCC2)CC1`, the IC50 came out at 560 nM.

`Cn1cnc2nc(NCCc3ccccc3)nc(NCc3cccc4ccccc34)c21` displayed an IC50 of 330 nM. As to `Cc1nc2nc(N)nc(N)c2c(C)c1Cc1ccccc1I`, the IC50 came out at 350 nM. Regarding `NC(=NCc1ccccc1)Nc1cccc(Cc2ccccc2)n1`, the IC50 came out at 860 nM. `CN(C)c1ccc(C2c3nc[nH]c3CCN2C(=O)Nc2cccc([N+](=O)[O-])c2)cc1` (centres undefined) had an IC50 of 970 nM. For `Fc1cccc(COc2ccc(Nc3ncnc4ccc(-c5nnc(C(F)(F)F)o5)cc34)cc2Cl)c1`, the IC50 was determined as 580 nM.

As for `Cc1ccc(C(=O)Nc2cc(S(=O)(=O)N3CCCC3)ccc2OCC(F)(F)F)cc1`, the IC50 was 850 nM. `O=C(CCCCCc1ccccc1)NC1CCC(CN2CCC(c3c[nH]c4ccccc34)CC2)CC1` (centres undefined) displayed an IC50 of 1140 nM. The compound `Cc1noc(C)c1-c1ccc2c(Nc3ccc(Cl)cc3)c(C(N)=O)cnc2c1` had an IC50 of 830 nM. As to `CCc1nc(N)nc(N)c1-c1ccc(C(C)(C)C)cc1`, the IC50 was determined as 230 nM. `O=C(C=Cc1ccc(Cl)c(Cl)c1)NCCCCCN1CCC(CCCNC(=O)c2sc3ccccc3c2Cl)CC1`: the IC50 amounted to 400 nM. For `Cc1cccc2[nH]c(-c3cccc(-c4ccc(NC(=O)C(=O)c5cccn5C)cc4)c3)nc12` the value was 380 nM; for `O=C(C=Cc1cn(-c2ccccc2)nc1-c1ccccc1)N1CCN(c2ccncc2)CC1`, 960 nM. With `Cc1cc(-c2cc(-c3ccc(OCCN(C)C)cc3)[nH]c2-c2ccc3c(c2)CCC3=NO)ccn1`, the IC50 was determined as 870 nM.

Take `CN(C)CCN(C)C(=O)c1cc(-c2ccncc2)c(-c2ccc(Cl)c(O)c2)o1`: the IC50 came to 1050 nM.

Take `CS(=O)(=O)Nc1cccc(-c2cnc3[nH]cc(-c4ccc(CN)cc4)c3c2)c1`: the IC50 came out at 990 nM. On to `COC(=O)c1ccc2nc(-c3ccc(C(=O)NCc4ccc(Cl)c(Cl)c4)cc3)[nH]c2c1`, for which the IC50 came to 850 nM.

In turn, `COc1cc(Cc2cnc(N)nc2N)c2c(c1OC)OC(C)C=C2` (centres undefined) displayed an IC50 of 1250 nM. The same measure for `Cc1cccc(-n2c(=O)c3c4c(sc3n3c(SCCC(C)C)nnc23)CCCC4)c1`: 760 nM.

Consider `Cc1ccc(F)cc1S(=O)(=O)Nc1ccc(CCN2CCC(N3CCCCC3)CC2)cc1`, for which the IC50 was 720 nM. For `CCOC(=O)C1=C(C)N=c2sc(=Cc3ccccc3O)c(=O)n2C1c1ccc(OC)c2ccccc12` (centres undefined) the value was 1260 nM. The same measure for `CCCCN1CCN(CCCNc2c3ccccc3nc3ccccc23)CC1`: 510 nM. `Clc1cc(Nc2ccnc3ccc(Br)cc23)ccc1Oc1ccc(Cl)c2ccccc12`: the IC50 worked out at 630 nM.

Take `CC(C)CNCc1cccc(-c2cccc(CNC3CCN(Cc4ccccc4)CC3)c2)c1`: the half-inhibitory concentration (IC50) worked out at 180 nM.

For `Cc1ccc(C(O)CNc2ccnc(Nc3cccc(-c4csc(C)n4)c3)n2)cc1` (centres undefined), the IC50 stood at 830 nM. Consider `COc1cccc(O)c1CN1CCC2(CCCN(Cc3ccc(F)cc3)C2)C1` (centres undefined), for which the IC50 was found to be 870 nM. Compound `Cc1[nH]c2ccccc2c(=O)c1[N+](=O)[O-]` gave an IC50 of 1110 nM. `CCOc1ccccc1CNc1nccc(NCc2ccc(Cl)cc2Cl)n1` displayed an IC50 of 1100 nM.

The compound `Cc1c(Oc2ccc(-n3ccnc3)cc2)ncnc1N1CCC2(CC1)CNCc1ccccc12` yielded an IC50 of 890 nM. Compound `CN1CCC(C(=O)Nc2cccc(-c3cccc(-c4nc5ccc(F)cc5[nH]4)c3)c2)CC1` showed an IC50 of 690 nM. The same measure for `COc1ccc2nccc([C@@H](O)CN3CCC(NC(=O)C(c4cccs4)N4CCN(c5ccc(F)cc5)CC4)CC3)c2c1` (some centres undefined): 820 nM.

Compound `c1ccc(-c2nnc(-c3ccccn3)nc2NC2CCCCC2)cc1` showed an IC50 of 910 nM. Regarding `CCN(CC)CCN(Cc1ccc(-c2ccc(C(F)(F)F)cc2)cc1)C(=O)Cn1cc(Cc2cnn(C)c2)c(=O)nc1/C=C/c1ccc(F)cc1`, the IC50 came out at 1060 nM.

As to `CCOC(=O)NC1=NC(C)(C)N(OCc2cccc3c2ccc2ccccc23)C(NC(=O)OCC)=N1`, the IC50 came out at 170 nM.

The compound `Cn1cc(C2CCN(CCCCCNC(=O)/C=C/c3ccc(Cl)c(Cl)c3)CC2)c2cc(O)ccc21` gave an IC50 of 940 nM. The compound `O=C(Nc1ccccc1)N(Cc1cccc(-c2cccc(CNCc3ccc4c(c3)OCO4)c2)c1)C1CCN(Cc2ccccc2)CC1` displayed an IC50 of 280 nM.

Regarding `COc1cccc(CCc2c(CCNCCCCCCNCCc3ccccc3)ccc(OC)c2OC)c1`, the IC50 came to 720 nM. For `Cc1cc(C)c2[nH]cc(C(=O)O)c(=O)c2c1` the value was 880 nM; for `COc1ccc(C=NNc2c3ccccc3nc3ccccc23)c2ccccc12`, 1130 nM. As for `NC(N)=NN=Cc1cc2ccccc2c2ccccc12`, the IC50 was 180 nM. The compound `COc1ccc(OC)c(C=NNc2nc3ccccc3[nH]2)c1` gave an IC50 of 730 nM. As for `CCN(CC)CC(O)c1cc(-c2ccc(OC)cc2)nc2cc(Cl)ccc12` (centres undefined), the IC50 is 70 nM. In the case of `CC(=O)N1N=C(c2ccc(Cl)cc2)Sc2c1nc(-c1ccccc1)n2C(C)=O`, the IC50 was 490 nM.

`COc1ccc2nccc([C@@H](O)CN3CCC(NC(=O)C(c4cc5ccccc5o4)N4CCN(C(c5ccccc5)c5ccccc5)CC4)CC3)c2c1` (some centres undefined) registered an IC50 of 150 nM. As to `CCCCCCN1CCCN(Cc2ccc(C(=O)Nc3cccc(CC)c3)cc2)CC1`, the IC50 amounted to 670 nM. As to `Nc1ncnc2nc(-c3ccc(F)cc3)cc(-c3ccc(NC(=O)c4ccccc4)cc3)c12`, the IC50 was 640 nM.

As for `CN(C)CCOc1cc(NC(=O)Nc2ccc(-c3ccccc3)cc2Cl)ccc1I`, the IC50 is 250 nM. For `Oc1c(C=Nn2cnnc2)sc2ccccc12` the value was 910 nM; for `NC1CCN(Cc2ccc(-c3ccc(-c4nc5ccc(F)cc5[nH]4)s3)cc2)C1` (centres undefined), 650 nM; for `O=C(NCc1ccc(S(=O)(=O)N2CCC(CN3CCC(c4c[nH]c5ccccc45)CC3)CC2)s1)c1ccccc1`, 840 nM.

Turning to `O=C(NC1CCN(Cc2ccccc2)CC1)c1cc(C(=O)NC2CCN(Cc3ccccc3)CC2)cc(C(=O)NC2CCN(Cc3ccccc3)CC2)c1`, the IC50 was found to be 1040 nM.

In turn, `O=C(NCCCCN1CCC(c2c[nH]c3ccccc23)CC1)c1ccc(-c2ccc(C(F)(F)F)cc2)cc1` gave an IC50 of 800 nM.

`O=S(=O)(Nc1ccc2nccc(N3CCNCC3)c2c1)c1ccc(-c2ccccc2)cc1` gave an IC50 of 980 nM. On to `Fc1cc(Cl)ccc1Nc1ccnc2cc(I)ccc12`, for which the IC50 was determined as 1130 nM. Take `COC(=O)c1cc2cccc(NC[C@@H](C)NC[C@H](O)c3cccc(Cl)c3)c2[nH]1`: the IC50 amounted to 630 nM. In turn, `Cn1nccc1C(=O)NCCNCc1cccc(-c2cccc(-c3nc4ccc(C(F)(F)F)cc4[nH]3)c2)c1` yielded an IC50 of 170 nM.

`CO/C(=C\C=C\c1cc2cc(Cl)c(Cl)cc2[nH]1)C(=O)NCCCN1CCN(c2ccc(OC)cc2)CC1` yielded an IC50 of 700 nM. For `CC(C)c1ccc(NC(=O)c2ccc(C(=O)NC3CCN(Cc4ccsc4)C3)cc2)cc1` (centres undefined) the value was 1030 nM. `CCOc1c(Br)cc(Cl)cc1CNCCCNc1nc2ccccc2[nH]1`: the IC50 was found to be 690 nM. The same measure for `Oc1cc2c(cc1CN1CCN(Cc3ccc(Cl)s3)CC1)CCC2`: 620 nM; for `CNC(=O)c1cnc(Nc2ccc(N3CCOCC3)cc2)nc1Nc1cccc(OC)c1`: 760 nM.

As to `CS(=O)(=O)NCCCNCc1ccc(-c2ccc(-c3nc4ccc(C(F)(F)F)cc4[nH]3)s2)cc1`, the IC50 came out at 510 nM.
